US20230117034A1, “PYRAZOLOTRIAZINES” (Bayer Aktiengesellschaft, priority 2019, published 2023)

Tests used:
[1] = biological target: T1, CYCLIN K (nuclear staining in CAL-120 cells) (Homo sapiens, UniProt O75909); test: CYCLIN K nuclear protein level: immunofluorescence high content analysis (CAL-120); assay type: cell-based; conditions: 24 h, 50% reduction of nuclear CCNK staining intensity, median, read-out: CYCLIN K degradation IF, DC50-[mol/l] (median)
T1 construct: endogenous in cells; host or cells: CAL-120 human breast cancer cells (DSMZ ACC 459)
T1 sequence (O75909 whole entry): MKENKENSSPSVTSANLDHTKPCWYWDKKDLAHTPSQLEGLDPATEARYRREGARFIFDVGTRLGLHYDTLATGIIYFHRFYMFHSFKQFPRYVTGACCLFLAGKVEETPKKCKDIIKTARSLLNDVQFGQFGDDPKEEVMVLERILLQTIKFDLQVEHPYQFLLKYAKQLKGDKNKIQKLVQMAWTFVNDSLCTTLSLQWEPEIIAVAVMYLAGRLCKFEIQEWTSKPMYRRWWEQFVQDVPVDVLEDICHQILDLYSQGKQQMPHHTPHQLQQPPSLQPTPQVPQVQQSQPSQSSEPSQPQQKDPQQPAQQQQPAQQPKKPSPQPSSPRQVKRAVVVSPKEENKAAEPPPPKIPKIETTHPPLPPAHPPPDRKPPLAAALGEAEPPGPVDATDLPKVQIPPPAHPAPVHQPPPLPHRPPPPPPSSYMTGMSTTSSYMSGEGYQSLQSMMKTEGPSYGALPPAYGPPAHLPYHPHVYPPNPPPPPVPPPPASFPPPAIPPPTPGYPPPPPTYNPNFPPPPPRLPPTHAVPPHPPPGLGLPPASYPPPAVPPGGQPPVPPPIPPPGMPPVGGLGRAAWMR
T1 sequence (Q9NYV4 whole entry partner): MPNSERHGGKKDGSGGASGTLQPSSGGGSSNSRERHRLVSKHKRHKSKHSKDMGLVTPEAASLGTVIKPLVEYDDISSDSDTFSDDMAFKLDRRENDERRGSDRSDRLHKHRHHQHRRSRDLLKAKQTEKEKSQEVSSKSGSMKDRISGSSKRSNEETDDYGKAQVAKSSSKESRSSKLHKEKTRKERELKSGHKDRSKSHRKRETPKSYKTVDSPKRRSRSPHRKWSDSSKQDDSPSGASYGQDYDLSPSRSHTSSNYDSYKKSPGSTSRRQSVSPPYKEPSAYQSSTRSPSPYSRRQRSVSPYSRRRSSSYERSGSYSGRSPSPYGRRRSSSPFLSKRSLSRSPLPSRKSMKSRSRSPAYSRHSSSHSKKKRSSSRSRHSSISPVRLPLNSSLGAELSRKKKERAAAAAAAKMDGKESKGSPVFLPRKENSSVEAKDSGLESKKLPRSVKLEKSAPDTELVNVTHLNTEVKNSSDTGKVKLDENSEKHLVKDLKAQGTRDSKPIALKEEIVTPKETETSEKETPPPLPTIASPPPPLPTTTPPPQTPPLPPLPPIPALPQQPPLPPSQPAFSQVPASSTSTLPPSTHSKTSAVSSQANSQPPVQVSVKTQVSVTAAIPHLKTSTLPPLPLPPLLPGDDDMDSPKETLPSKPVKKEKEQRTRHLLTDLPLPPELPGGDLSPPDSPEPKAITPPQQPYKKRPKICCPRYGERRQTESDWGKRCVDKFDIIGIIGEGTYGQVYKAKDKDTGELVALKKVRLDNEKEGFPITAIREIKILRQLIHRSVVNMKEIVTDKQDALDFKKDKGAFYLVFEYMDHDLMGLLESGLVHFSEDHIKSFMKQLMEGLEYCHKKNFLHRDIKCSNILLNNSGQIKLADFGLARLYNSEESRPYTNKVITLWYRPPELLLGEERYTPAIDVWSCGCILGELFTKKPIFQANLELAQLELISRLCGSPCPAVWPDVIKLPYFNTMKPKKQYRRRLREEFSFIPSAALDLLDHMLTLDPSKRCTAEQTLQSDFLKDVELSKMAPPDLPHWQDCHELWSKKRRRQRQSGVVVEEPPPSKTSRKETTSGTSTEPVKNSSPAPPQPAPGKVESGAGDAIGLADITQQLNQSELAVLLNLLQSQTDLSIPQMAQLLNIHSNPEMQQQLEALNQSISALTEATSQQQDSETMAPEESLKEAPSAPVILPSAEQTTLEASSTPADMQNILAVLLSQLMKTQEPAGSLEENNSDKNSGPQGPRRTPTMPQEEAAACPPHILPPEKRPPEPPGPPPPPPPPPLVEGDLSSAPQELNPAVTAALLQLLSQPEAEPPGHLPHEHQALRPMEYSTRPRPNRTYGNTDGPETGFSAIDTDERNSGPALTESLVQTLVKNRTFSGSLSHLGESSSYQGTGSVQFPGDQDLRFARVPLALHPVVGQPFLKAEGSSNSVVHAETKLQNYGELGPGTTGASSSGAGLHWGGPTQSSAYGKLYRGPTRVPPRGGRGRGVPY
Procedure, shortened: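 Readout is automated confocal image analysis of nuclear cyclin K immunofluorescence (Hoechst nuclei) after PFA fixation. Cells were CAL-120, exposed to compound dose-response 24 h at 37 °C; values are DC50 for halving nuclear CCNK signal relative to DMSO and control wells.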

[2] = biological target: T2, CDK12 (nuclear staining in CAL-120 cells) (Homo sapiens, UniProt Q9NYV4); test: CDK12 nuclear protein level: immunofluorescence/high content analysis (CAL-120); assay type: cell-based; conditions: for DC50: CAL-120 cells, 24 h, immunofluorescence, 50% reduction of nuclear CDK12 staining intensity, median, read-out: CDK12 degradation IF, DC50- [mol/l] (median); for (IC50 CDK12 high ATP) to (Degradation DC50 CDK12) ratio: ratio of IC50 CDK12 high ATP kinase assay to DC50 CDK12 degradation (IF, CAL-120)
T2 construct: endogenous in cells; host or cells: CAL-120 human breast cancer cells (DSMZ ACC 459)
T2 sequence (Q9NYV4 whole entry): as the sequence (Q9NYV4 whole entry partner) above
T2 sequence (O75909 whole entry partner): as the sequence (O75909 whole entry) above
Procedure, shortened: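 DC50 is the degrader concentration that halves nuclear CDK12 immunofluorescence relative to controls, measured by high-content imaging. CAL-120 cells were exposed to compound for 24 h at 37 °C before PFA fixation, and signal was normalized to DMSO and control wells.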

[3] = biological target: T3, CDK2/CycE (Homo sapiens, UniProt P24941); test: CDK2/CycE kinase assay (TR-FRET, 2 mM ATP); assay type: biochemical; conditions: 2 mM ATP (high ATP); median; read-out: CDK2/CyclinE, 2 mM ATP (high ATP), IC50 (median)
T3 construct: purchased ProQinase GmbH (Freiburg, Germany); host or cells: insect cells (Sf9)
Procedure, shortened: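 Biotin-peptide phosphorylation (0.75 µM substrate, 2 mM ATP final, 25 min, 22 °C) by Sf9-expressed GST-CDK2/GST-CycE, after a 15-min compound pre-binding step. Inhibition scaled between enzyme-free (100%) and uninhibited (0%) wells.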

Cc1ccc2[nH]c(CNc3nc(N4C[C@@H](C)N[C@@H](C)C4)nc4c(C5CC5)cnn34)nc2c1 [Example 194, 8-cyclopropyl-2-[(3R,5S)-3,5-dimethylpiperazin-1-yl]-N-[(5-methyl-1H-benzimidazol-2-yl)methyl]pyrazolo[1,5-a][1,3,5]triazin-4-amine] was tested, and the DC50 [1] was 0.0954 nM, the DC50 [2] was 0.23 nM and the “(IC50 CDK12 high ATP) to (Degradation DC50 CDK12) ratio” value [2] was 16078. For the same compound, the IC50 [3] was > 20000 nM.
In the case of OC[C@@H]1CCCCN1c1nc(NCc2nc3c(F)c(F)ccc3[nH]2)n2ncc(C3CC3)c2n1 [Example 184, [(2S)-1-(8-cyclopropyl-4-{[(4,5-difluoro-1H-benzimidazol-2-yl)methyl]amino}pyrazolo[1,5-a][1,3,5]triazin-2-yl)piperidin-2-yl]methanol], the DC50 [1] is reported as 0.929 nM, the DC50 [2] is reported as 1.75 nM and the “(IC50 CDK12 high ATP) to (Degradation DC50 CDK12) ratio” value [2] is reported as 8. For the same compound, the IC50 [3] was 2720 nM.
With CN1CC[C@H]2CN(c3nc(NCc4nc5ccccc5[nH]4)n4ncc(Br)c4n3)C[C@H]21 [Example 179, N-[(1H-benzimidazol-2-yl)methyl]-8-bromo-2-[(3aS,6aS)-1-methylhexahydropyrrolo[3,4-b]pyrrol-5 (1H)-yl]pyrazolo[1,5-a][1,3,5]triazin-4-amine] the DC50 [1] was 1.37 nM, the DC50 [2] was 4.59 nM and the “(IC50 CDK12 high ATP) to (Degradation DC50 CDK12) ratio” value [2] was >4361. For the same compound, the IC50 [3] was > 20000 nM.
For COc1cccc2[nH]c(CNc3nc(N4CCNCC4)nc4c(C5CC5)cnn34)nc12 [Example 211, 8-cyclopropyl-N-[(4-methoxy-1H-benzimidazol-2-yl)methyl]-2-(piperazin-1-yl)pyrazolo[1,5-a][1,3,5]triazin-4-amine], the DC50 [1] was 0.478 nM, the DC50 [2] was 2.32 nM and the “(IC50 CDK12 high ATP) to (Degradation DC50 CDK12) ratio” value [2] was 1184. The IC50 [3] was 8560 nM.
In the case of Brc1cnn2c(NCc3nc4ccccc4[nH]3)nc(N3CC4CCC(C3)N4)nc12 [Example 232, N-(1H-benzimidazol-2-ylmethyl)-8-bromo-2-(3,8-diazabicyclo[3.2.1]octan-3-yl)pyrazolo[1,5-a][1,3,5]triazin-4-amine], the DC50 [1] is reported as 1.06 nM, the DC50 [2] is reported as > 3.6 nM and the IC50 [3] is reported as 2870 nM.
For CN1CC[C@@H]2CN(c3nc(NCc4nc5ccccc5[nH]4)n4ncc(Br)c4n3)C[C@@H]21 [Example 217, N-[(1H-benzimidazol-2-yl)methyl]-8-bromo-2-[(3aR,6aR)-1-methylhexahydropyrrolo[3,4-b]pyrrol-5 (1H)-yl]pyrazolo[1,5-a][1,3,5]triazin-4-amine], the DC50 [1] was 4.56 nM, the DC50 [2] was 8.64 nM and the “(IC50 CDK12 high ATP) to (Degradation DC50 CDK12) ratio” value [2] was >2315. For the same compound, the IC50 [3] was > 20000 nM.
With Fc1cccc2[nH]c(CNc3nc(N4CCNCC4)nc4c(C5CC5)cnn34)nc12 [Example 182, 8-cyclopropyl-N-[(4-fluoro-1H-benzimidazol-2-yl)methyl]-2-(piperazin-1-yl)pyrazolo[1,5-a][1,3,5]triazin-4-amine] the DC50 [1] was 0.103 nM, the DC50 [2] was 0.727 nM and the “(IC50 CDK12 high ATP) to (Degradation DC50 CDK12) ratio” value [2] was 2813. The IC50 [3] was > 20000 nM.
In the case of C[C@@H]1CN(c2nc(NCc3nc4c(F)cccc4[nH]3)n3ncc(C4CC4)c3n2)C[C@H](C)N1 [Example 186, 8-cyclopropyl-2-[(3R,5S)-3,5-dimethylpiperazin-1-yl]-N-[(4-fluoro-1H-benzimidazol-2-yl)methyl]pyrazolo[1,5-a][1,3,5]triazin-4-amine], the DC50 [1] is reported as 0.16 nM, the DC50 [2] is reported as 0.226 nM and the “(IC50 CDK12 high ATP) to (Degradation DC50 CDK12) ratio” value [2] is reported as 12018. For the same compound, the IC50 [3] was > 20000 nM.
Cc1ccc2[nH]c(CNc3nc(N4C[C@@H](C)N[C@@H](C)C4)nc4c(Br)cnn34)nc2c1 [Example 209, 8-bromo-2-[(3R,5S)-3,5-dimethylpiperazin-1-yl]-N-[(5-methyl-1H-benzimidazol-2-yl)methyl]pyrazolo[1,5-a][1,3,5]triazin-4-amine] was tested, and the DC50 [1] was 0.0619 nM, the DC50 [2] was 0.471 nM and the “(IC50 CDK12 high ATP) to (Degradation DC50 CDK12) ratio” value [2] was 14455. The IC50 [3] was > 20000 nM.
CN(CC(C)(C)O)c1nc(NCc2nc3ccccc3[nH]2)n2ncc(Br)c2n1 [Example 238, 1-[(4-{[(1H-benzimidazol-2-yl)methyl]amino}-8-bromopyrazolo[1,5-a][1,3,5]triazin-2-yl)(methyl)amino]-2-methylpropan-2-ol] was tested, and the DC50 [1] was 4.19 nM, the DC50 [2] was 6.49 nM and the “(IC50 CDK12 high ATP) to (Degradation DC50 CDK12) ratio” value [2] was 276. For the same compound, the IC50 [3] was 1860 nM.
For C[C@@H]1CN(c2nc(NCc3nc4cc(F)ccc4[nH]3)n3ncc(C4CC4)c3n2)C[C@H](C)N1 [Example 175, 8-cyclopropyl-2-[(3R,5S)-3,5-dimethylpiperazin-1-yl]-N-[(5-fluoro-1H-benzimidazol-2-yl)methyl]pyrazolo[1,5-a][1,3,5]triazin-4-amine], the DC50 [1] was 0.147 nM, the DC50 [2] was 0.322 nM and the “(IC50 CDK12 high ATP) to (Degradation DC50 CDK12) ratio” value [2] was 34272. For the same compound, the IC50 [3] was > 20000 nM.
For Fc1ccc2[nH]c(CNc3nc(N4C[C@@H]5C[C@H]4CO5)nc4c(C5CC5)cnn34)nc2c1F [Example 173, 8-cyclopropyl-N-[(4,5-difluoro-1H-benzimidazol-2-yl)methyl]-2-[(1S,4S)-2-oxa-5-azabicyclo[2.2.1]heptan-5-yl]pyrazolo[1,5-a][1,3,5]triazin-4-amine], the DC50 [1] was 1.03 nM, the DC50 [2] was 1.74 nM and the “(IC50 CDK12 high ATP) to (Degradation DC50 CDK12) ratio” value [2] was >11498. For the same compound, the IC50 [3] was > 20000 nM.
For CC1CN(c2nc(NCc3nc4ccccc4[nH]3)n3ncc(C(C)C)c3n2)CCO1 (racemic) [Example 11, (rac)-N-[(1H-benzimidazol-2-yl)methyl]-2-[2-methylmorpholin-4-yl]-8-(propan-2-yl)pyrazolo[1,5-a][1,3,5]triazin-4-amine], the DC50 [1] was 14.5 nM, the DC50 [2] was 12.6 nM and the “(IC50 CDK12 high ATP) to (Degradation DC50 CDK12) ratio” value [2] was 251. For the same compound, the IC50 [3] was 5510 nM.
For COC(C)(C)CNc1nc(NCc2nc3ccccc3[nH]2)n2ncc(Br)c2n1 [Example 236, N4-(1H-benzimidazol-2-ylmethyl)-8-bromo-N2-(2-methoxy-2-methyl-propyl)pyrazolo[1,5-a][1,3,5]triazine-2,4-diamine], the DC50 [1] was 1.72 nM, the DC50 [2] was 7.18 nM and the IC50 [3] was 12800 nM.
Brc1cnn2c(NCc3nc4ccccc4[nH]3)nc(N3CC4CCC3CN4)nc12 (stereo not shown) [Example 220, N-(1H-benzimidazol-2-ylmethyl)-8-bromo-2-(2,5-diazabicyclo[2.2.2]octan-2-yl)pyrazolo[1,5-a][1,3,5]triazin-4-amine] was tested, and the DC50 [1] was 1.14 nM, the DC50 [2] was 4.21 nM and the “(IC50 CDK12 high ATP) to (Degradation DC50 CDK12) ratio” value [2] was 1318. It also gave an IC50 [3] of 908 nM.
For COc1cccc2[nH]c(CNc3nc(N4CCN(C)CC4)nc4c(C5CC5)cnn34)nc12 [Example 197, 8-cyclopropyl-N-[(4-methoxy-1H-benzimidazol-2-yl)methyl]-2-(4-methylpiperazin-1-yl)pyrazolo[1,5-a][1,3,5]triazin-4-amine], the DC50 [1] was 0.763 nM, the DC50 [2] was 1.4 nM and the “(IC50 CDK12 high ATP) to (Degradation DC50 CDK12) ratio” value [2] was 6827. For the same compound, the IC50 [3] was 13400 nM.
For Clc1cnn2c(NCc3nc4ccccc4[nH]3)nc(N3CCOCC3)nc12 [Example 15, N-[(1H-benzimidazol-2-yl)methyl]-8-chloro-2-(morpholin-4-yl)pyrazolo[1,5-a][1,3,5]triazin-4-amine], the DC50 [1] was 4.51 nM, the DC50 [2] was 5.05 nM and the “(IC50 CDK12 high ATP) to (Degradation DC50 CDK12) ratio” value [2] was 1191. For the same compound, the IC50 [3] was 6520 nM.
With CC(C)(O)CNc1nc(NCc2nc3ccccc3[nH]2)n2ncc(Br)c2n1 [Example 229, 1-[(4-{[(1H-benzimidazol-2-yl)methyl]amino}-8-bromopyrazolo[1,5-a][1,3,5]triazin-2-yl)amino]-2-methylpropan-2-ol] the DC50 [1] was 0.39 nM, the DC50 [2] was 6.38 nM and the “(IC50 CDK12 high ATP) to (Degradation DC50 CDK12) ratio” value [2] was 862. It also gave an IC50 [3] of 1460 nM.
With C[C@H]1CN(c2nc(NCc3nc4ccccc4[nH]3)n3ncc(Br)c3n2)CCN1 [Example 169, N-[(1H-benzimidazol-2-yl)methyl]-8-bromo-2-[(3S)-3-methylpiperazin-1-yl]pyrazolo[1,5-a][1,3,5]triazin-4-amine] the DC50 [1] was 1.95 nM, the DC50 [2] was 1.09 nM and the “(IC50 CDK12 high ATP) to (Degradation DC50 CDK12) ratio” value [2] was 12610. It also gave an IC50 [3] of 13300 nM.
For Fc1cccc2[nH]c(CNc3nc(N4C[C@@H]5CCCN[C@@H]5C4)nc4c(C5CC5)cnn34)nc12 [Example 187, 8-cyclopropyl-N-[(4-fluoro-1H-benzimidazol-2-yl)methyl]-2-[(4aS,7aS)-octahydro-6H-pyrrolo[3,4-b]pyridin-6-yl]pyrazolo[1,5-a][1,3,5]triazin-4-amine], the DC50 [1] was 0.369 nM, the DC50 [2] was 0.707 nM and the “(IC50 CDK12 high ATP) to (Degradation DC50 CDK12) ratio” value [2] was 9192. The IC50 [3] was > 20000 nM.
With COc1cccc2[nH]c(CNc3nc(N4C[C@@H](C)N[C@@H](C)C4)nc4c(C5CC5)cnn34)nc12 [Example 212, 8-cyclopropyl-2-[(3R,5S)-3,5-dimethylpiperazin-1-yl]-N-[(4-methoxy-1H-benzimidazol-2-yl)methyl]pyrazolo[1,5-a][1,3,5]triazin-4-amine] the DC50 [1] was 0.47 nM, the DC50 [2] was 1.09 nM and the “(IC50 CDK12 high ATP) to (Degradation DC50 CDK12) ratio” value [2] was 3798. For the same compound, the IC50 [3] was > 19000 nM.
